This assay deals with CFTR-mediated chloride transport (Homo sapiens, UniProt P13569). Kind of assay: Corrector Assay A - membrane potential dye assay (enteroid cells). To be noted: for Corrector Assay A % activity: % of chloride transport of triple combination control (1 μM (14S)-dispiro macrocycle + 3 μM tezacaftor + 300 nM ivacaftor); for EC50: read-out: Corrector Assay A EC50, human intestinal enteroid cells, 18-24 h incubation, acute 10 μM forskolin + 300 nM ivacaftor.

This is an account of results in patent US20220313698A1, “MODULATORS OF CYSTIC FIBROSIS TRANSMEMBRANE CONDUCTANCE REGULATOR” (Vertex Pharmaceuticals Incorporated, priority 2019, published 2022).

Turning to `COC(=O)C1CC[C@@H]2CN(c3nc(C(C)(C)C)ccc3C(=O)NS(=O)(=O)c3cccc(n3)N1)C(C)(C)C2` (single isomer, unassigned) [Compound 224], the “Corrector Assay A % activity” value is recorded as “+++ (+++ is >60%)” and the EC50 was less than 1 µM. Taken in the same sequence, the figures for `CN1CCN(c2ccc(C3CC[C@@H]4CN(c5nc(C(C)(C)C)ccc5C(=O)NS(=O)(=O)c5cccc(n5)N3)C(C)(C)C4)nc2)CC1` (stereo partly drawn) [Compound 200] were “+++ (+++ is >60%)” and less than 1 µM.

Take `CC(C)(C)c1ccc2c(n1)N1C[C@@H](CCC(c3ccc(C4CCNCC4)cn3)Nc3cccc(n3)S(=O)(=O)NC2=O)CC1(C)C` (stereo partly drawn) [Compound 153]: the “Corrector Assay A % activity” value is listed as “++ (++ is 30-60%)” and the EC50 is less than 1 µM. As for `CC(C)(C)c1ccc2c(n1)N1C[C@@H](CC[C@@H](C3CCN(CCC(F)(F)F)CC3)Nc3cccc(n3)S(=O)(=O)NC2=O)CC1(C)C` (single isomer, unassigned) [Compound 239], the “Corrector Assay A % activity” value is reported as “+ (+ is <30%)” and the EC50 was greater than 3 µM. Taken in the same sequence, the figures for `CC(C)(C)NCc1ccnc([C@@H]2CC[C@@H]3CN(c4nc(C(C)(C)C)ccc4C(=O)NS(=O)(=O)c4cccc(n4)N2)C(C)(C)C3)c1` (single isomer, unassigned) [Compound 61] were “+++ (+++ is >60%)” and less than 1 µM. For `CC(C)(C)c1ccc2c(n1)N1C[C@@H](CCC(c3ccc(N4CCCC4)cn3)Nc3cccc(n3)S(=O)(=O)NC2=O)CC1(C)C` (stereo partly drawn) [Compound 164, (14S)-8-tert-butyl-12,12-dimethyl-17-[5-(pyrrolidin-1-yl)pyridin-2-yl]-2λ^6-thia-3,9,11,18,23-pentaazatetracyclo[17.3.1.111,14.05,10]tetracosa-1(23),5(10),6,8,19,21-hexaene-2,2,4-trione], in that order: “+++ (+++ is >60%)” and less than 1 µM. With `CC(C)(C)c1ccc2c(n1)N1C[C@@H](CC[C@@H](c3ccncn3)Nc3cccc(n3)S(=O)(=O)NC2=O)CC1(C)C` (single isomer, unassigned) [Compound 216], the “Corrector Assay A % activity” value was “+ (+ is <30%)”. `CC(C)(C)c1ccc2c(n1)N1C[C@@H](CCC(c3ccc(C4CC4)cn3)Nc3cccc(n3)S(=O)(=O)NC2=O)CC1(C)C` (stereo partly drawn) [Compound 170]: the “Corrector Assay A % activity” value is on record as “+++ (+++ is >60%)” and the EC50 is less than 1 µM.

As for `CC(C)(C)c1ccc2c(n1)N1C[C@@H](CCC(c3cc(CCCN)ccn3)Nc3cccc(n3)S(=O)(=O)NC2=O)CC1(C)C` (single isomer, unassigned) [Compound 109], the “Corrector Assay A % activity” value is given as “+++ (+++ is >60%)” and the EC50 is less than 1 µM.

Turning to `CN(C)Cc1ccc(C2CC[C@@H]3CN(c4nc(C(C)(C)C)ccc4C(=O)NS(=O)(=O)c4cccc(n4)N2)C(C)(C)C3)nc1` (stereo partly drawn) [Compound 102], the “Corrector Assay A % activity” value is on record as “+++ (+++ is >60%)” and the concentration for a half-maximal effect (EC50) is less than 1 µM. For `CC(C)(C)c1ccc2c(n1)N1C[C@@H](CCC(c3ccc(CCC(=O)O)cn3)Nc3cccc(n3)S(=O)(=O)NC2=O)CC1(C)C` (stereo partly drawn) [Compound 97], in that order: “++ (++ is 30-60%)” and 1 to 3 µM. `Cc1ccc2nc3c(cc2c1)C(=O)NS(=O)(=O)c1cccc(n1)N[C@H](c1cc(C(C)(C)C)ccn1)CC[C@@H]1CN3C(C)(C)C1` (single isomer, unassigned) [Compound 6]: the “Corrector Assay A % activity” value was “++ (++ is 30-60%)” and the EC50 is less than 1 µM. For `CC(C)(C)c1ccc2c(n1)N1C[C@@H](CCC(c3ccc(C4CCNCC4)cn3)Nc3cccc(n3)S(=O)(=O)NC2=O)CC1(C)C` (stereo partly drawn) [Compound 154, (14S)-8-tert-Butyl-12,12-dimethyl-17-[5-(piperidin-4-yl)pyridin-2-yl]-2λ^6-thia-3,9,11,18,23-pentaazatetracyclo[17.3.1.111,14.05,10]tetracosa-1(23),5(10),6,8,19,21-hexaene-2,2,4-trione], in that order: “+++ (+++ is >60%)” and less than 1 µM.

For the compound `CC(C)(C)c1ccc2c(n1)N1C[C@@H](CCC(c3cc(C(N)=O)ccn3)Nc3cccc(n3)S(=O)(=O)NC2=O)CC1(C)C` (single isomer, unassigned) [Compound 83], the “Corrector Assay A % activity” value is recorded as “++ (++ is 30-60%)” and the EC50 is less than 1 µM. Taken in the same sequence, the figures for `CC(C)(C)c1ccc2c(n1)N1C[C@@H](CCC(c3ncccc3Cl)Nc3cccc(n3)S(=O)(=O)NC2=O)CC1(C)C` (single isomer, unassigned) [Compound 65] were “++ (++ is 30-60%)” and less than 1 µM.

As to `CC(C)(C)CCc1ccc2c(n1)N1C[C@@H](CC[C@H](c3ccccn3)Nc3cccc(n3)S(=O)(=O)NC2=O)CC1(C)C` [Compound 105, (14S,17R)-8-(3,3-dimethylbutyl)-12,12-dimethyl-17-(pyridin-2-yl)-2λ^6-thia-3,9,11,18,23-pentaazatetracyclo[17.3.1.111,14.05,10]tetracosa-1(22),5,7,9,19(23),20-hexaene-2,2,4-trione], the “Corrector Assay A % activity” value is reported as “+++ (+++ is >60%)” and the EC50 is less than 1 µM.

As to `CC(C)(C)c1ccc2c(n1)N1C[C@@H](CCC(c3ccc(N)cn3)Nc3cccc(n3)S(=O)(=O)NC2=O)CC1(C)C` (stereo partly drawn) [Compound 64, (14S)-17-(5-aminopyridin-2-yl)-8-tert-butyl-12,12-dimethyl-2λ^6-thia-3,9,11,18,23-pentaazatetracyclo[17.3.1.111,14.05,10]tetracosa-1(23),5(10),6,8,19,21-hexaene-2,2,4-trione], the “Corrector Assay A % activity” value is “++ (++ is 30-60%)” and the EC50 is less than 1 µM. In the case of `CC(C)(C)c1ccnc(C2CC[C@@H]3CN(c4nc(C(C)(C)C)ncc4C(=O)NS(=O)(=O)c4cccc(n4)N2)C(C)(C)C3)c1` (single isomer, unassigned) [Compound 2], the “Corrector Assay A % activity” value is listed as “+++ (+++ is >60%)” and the EC50 was less than 1 µM. Taken in the same sequence, the figures for `CC(C)(C)c1cccc(C2CC[C@@H]3CN(c4nc(C(C)(C)C)ccc4C(=O)NS(=O)(=O)c4cccc(n4)N2)C(C)(C)C3)c1` (single isomer, unassigned) [Compound 41] were “+++ (+++ is >60%)” and less than 1 µM. Taken in the same sequence, the figures for `CC(C)(C)c1ccc2c(n1)N1C[C@@H](CCC(C3CCN(c4ncccn4)CC3)Nc3cccc(n3)S(=O)(=O)NC2=O)CC1(C)C` (stereo partly drawn) [Compound 218, (14S)-8-tert-butyl-12,12-dimethyl-17-[1-(pyrimidin-2-yl)piperidin-4-yl]-2λ^6-thia-3,9,11,18,23-pentaazatetracyclo[17.3.1.111,14.05,10]tetracosa-1(23),5(10),6,8,19,21-hexaene-2,2,4-trione] were “++ (++ is 30-60%)” and less than 1 µM. Taken in the same sequence, the figures for `CC(C)(C)c1ccc2c(n1)N1C[C@@H](CCC(c3ccc(-c4cn[nH]c4)cn3)Nc3cccc(n3)S(=O)(=O)NC2=O)CC1(C)C` (stereo partly drawn) [Compound 136] were “+++ (+++ is >60%)” and less than 1 µM.

Consider `CC(C)(C)c1ccc2c(n1)N1C[C@@H](CC[C@@H](c3ncccn3)Nc3cccc(n3)S(=O)(=O)NC2=O)CC1(C)C` (single isomer, unassigned) [Compound 207], for which the “Corrector Assay A % activity” value is listed as “+++ (+++ is >60%)” and the EC50 is less than 1 µM. For the compound `CC(C)(C)c1ccc2c(n1)N1CC(CCN(c3ccccc3)C(=O)c3cccc(c3)S(=O)(=O)NC2=O)CC1(C)C` (single isomer, unassigned) [Compound 267, 8-tert-Butyl-12,12-dimethyl-17-phenyl-2λ^6-thia-3,9,11,17-tetraazatetracyclo[17.3.1.111,14.05,10]tetracosa-1(22),5,7,9,19(23),20-hexaene-2,2,4,18-tetrone], the “Corrector Assay A % activity” value is recorded as “+ (+ is <30%)” and the concentration for a half-maximal effect (EC50) is greater than 3 µM. As for `CC1(C)C[C@@H]2CC[C@H](c3ccccn3)Nc3cccc(n3)S(=O)(=O)NC(=O)c3ccc(C4CCCCC4)nc3N1C2` [Compound 328], the “Corrector Assay A % activity” value was “+++ (+++ is >60%)” and the concentration for a half-maximal effect (EC50) is less than 1 µM.

With `CC(C)(C)c1ccc2c(n1)N1C[C@@H](CCC(c3cc(C4CCNCC4)ccn3)Nc3cccc(n3)S(=O)(=O)NC2=O)CC1(C)C` (stereo partly drawn) [Compound 123], the “Corrector Assay A % activity” value was “+++ (+++ is >60%)” and the EC50 was less than 1 µM. For `CC(C)(C)c1ccc2c(n1)N1CC(CCN(c3ccccc3)C(=O)c3cccc(c3)S(=O)(=O)NC2=O)CC1(C)C` (single isomer, unassigned) [Compound 266, 8-tert-butyl-12,12-dimethyl-17-phenyl-2λ^6-thia-3,9,11,17-tetraazatetracyclo[17.3.1.111,14.05,10]tetracosa-1(22),5,7,9,19(23),20-hexaene-2,2,4,18-tetrone], the “Corrector Assay A % activity” value is recorded as “+ (+ is <30%)”. For the compound `CC(C)c1ccc(-c2ccc3c(n2)N2C[C@@H](CC[C@H](c4ccccn4)Nc4cccc(n4)S(=O)(=O)NC3=O)CC2(C)C)cc1` [Compound 347], the “Corrector Assay A % activity” value is on record as “+++ (+++ is >60%)” and the EC50 was less than 1 µM. Taken in the same sequence, the figures for `CC(C)(C)c1ccc2c(n1)N1C[C@@H](CCC(c3ccc(N4CCOCC4)cn3)Nc3cccc(n3)S(=O)(=O)NC2=O)CC1(C)C` (stereo partly drawn) [Compound 199] were “+++ (+++ is >60%)” and less than 1 µM.

For the compound `CC(=O)N1CCC([C@@H]2CC[C@@H]3CN(c4nc(C(C)(C)C)ccc4C(=O)NS(=O)(=O)c4cccc(n4)N2)C(C)(C)C3)CC1` (single isomer, unassigned) [Compound 229], the “Corrector Assay A % activity” value was “++ (++ is 30-60%)” and the EC50 is less than 1 µM. Regarding `CC1(C)C[C@@H]2CC[C@H](c3ccccn3)Nc3cccc(n3)S(=O)(=O)NC(=O)c3ccc(-c4cccc(OCC5CC5)n4)nc3N1C2` [Compound 314], the “Corrector Assay A % activity” value was “+++ (+++ is >60%)” and the EC50 is less than 1 µM. Taken in the same sequence, the figures for `CC(C)(C)c1ccc2c(n1)N1C[C@@H](CCC(C(C)(C)C)Nc3cccc(n3)S(=O)(=O)NC2=O)CC1(C)C` (single isomer, unassigned) [Compound 245] were “++ (++ is 30-60%)” and less than 1 µM.

One may read the EC50 as the midpoint of the concentration-response curve.
